According to PMC10999085, “Synthesis, anticancer evaluation, molecular docking and ADME study of novel pyrido[4ʹ,3ʹ:3,4]pyrazolo[1,5-a]pyrimidines as potential tropomyosin receptor kinase A (TrKA) inhibitors” (BMC Chemistry, 2024):
Values after ≈ are worked out from the molar mass of the structure shown. “Also recorded” adds a separate entry of the source.

Experiments:
HepG2 cells = experiment: In-vitro cell cycle analysis (PI flow cytometry); assay type: cell-based, human; conditions: for Cell cycle comment (phase of arrest): HepG2; for DNA content %G0-G1 / DNA content %G2/M / DNA content %Pre-G1 / DNA content %S: HepG2, compound at its IC50; for increase of the proportion of cells in the G2/M phase: HepG2, versus control
Experimental: HepG-2 cells are pre-cultured in 25 cm^2 cell culture flask. RPMI-1640 medium was used. Tested compounds 7b, 9c, 15b, 16a and 16c were used in the cell treatment at their IC50 by dissolving them in the required medium separately. The procedure was discussed in details in the ESI.
For cell cycle analysis, stained DNA from HepG2 cancer cells was treated with compounds 7b, 15b, 16a and 16c that induce cancer cell death by inhibiting TrKA. From the results in Table 5, it can be seen that the proportion of cells at phase in the pre-G1 of compounds 7b, 15b, 16a and 16c increased the proportion of cells at phase in the G2/M by about 4, 4, 2.5 and 3 folds, respectively.
HepG-2 cells were pre-cultured in 25 cm^2 cell culture flasks; RPMI-1640 medium was used. Tested compounds 7b, 15b, 16a and 16c were dissolved separately in the required medium and used in the cell treatment at their IC50. After overnight treatment the cells were collected and fixed gently with 70% (v/v) ethanol in PBS, incubated overnight at 4 °C, and resuspended in PBS containing 40 µg/ml propidium iodide (PI), 0.1 mg/ml RNase and 0.1% (v/v) Triton X-100 in the dark room at after 30 min at 37 °C, the cell cycle analysis was performed using a flow cytometer, equipped with an argon ion laser at a wavelength of 488 nm (Becton-Dickinson, San Josa, CA, USA) and the percentage of cells at G1, S and G2/M was also calculated.

MCF7 cell line = experiment: MTT assay, MCF7 cell line; assay type: cell-based, human; conditions: 24 hr treatment, in % (unit assumed); for Cytotoxicity at 5 µg/l: MCF7, 5 µg/l; for Cytotoxicity at 10 µg/l: MCF7, 10 µg/l; for Cytotoxicity at 20 µg/l: MCF7, 20 µg/l
Outline: (§1)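 Cells in RPMI-1640 with 10% FBS were seeded at 1.0x10^4 cells/well and cultured 48 h, then exposed to compound for 24 hr. Viability was measured by MTT reduction (4 hr), with formazan dissolved in DMSO and read at 570 nm, relative to untreated cells. Values are means of three independent triplicate experiments.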

[1] = molecular target: T1, Tropomyosin receptor kinase A (TrKA) (Homo sapiens, UniProt P04629); experiment: Tropomyosin receptor kinase A (TrKA) inhibitory assay (Kinase-Glo MAX kit); assay type: biochemical; conditions: in vitro kinase assay, recombinant TrkA
T1 construct: purchased
T1 sequence (P04629 33-796): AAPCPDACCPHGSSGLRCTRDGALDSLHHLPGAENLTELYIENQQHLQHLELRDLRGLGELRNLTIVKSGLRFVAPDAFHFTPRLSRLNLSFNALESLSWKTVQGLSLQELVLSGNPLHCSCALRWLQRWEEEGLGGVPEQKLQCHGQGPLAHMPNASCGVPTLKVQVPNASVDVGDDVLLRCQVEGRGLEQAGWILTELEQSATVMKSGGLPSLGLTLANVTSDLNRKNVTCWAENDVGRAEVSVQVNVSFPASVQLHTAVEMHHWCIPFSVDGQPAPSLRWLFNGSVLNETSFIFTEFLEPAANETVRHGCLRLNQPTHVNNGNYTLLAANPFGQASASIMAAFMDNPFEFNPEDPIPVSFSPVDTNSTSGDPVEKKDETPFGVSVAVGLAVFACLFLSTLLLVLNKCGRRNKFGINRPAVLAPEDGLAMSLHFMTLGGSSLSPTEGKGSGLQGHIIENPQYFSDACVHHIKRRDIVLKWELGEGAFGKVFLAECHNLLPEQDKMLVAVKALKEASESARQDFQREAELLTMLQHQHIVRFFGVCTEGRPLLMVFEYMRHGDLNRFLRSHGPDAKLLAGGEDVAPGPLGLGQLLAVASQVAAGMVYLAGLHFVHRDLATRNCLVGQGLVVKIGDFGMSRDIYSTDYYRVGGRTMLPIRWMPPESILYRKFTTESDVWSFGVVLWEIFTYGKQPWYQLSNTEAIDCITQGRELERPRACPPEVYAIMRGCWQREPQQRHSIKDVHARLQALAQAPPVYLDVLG
Description: (§2) The TrkA assay Kit is designed to measure TrkA activity for screening and profiling applications using Kinase-Glo® MAX as a detection reagent. The TrkA Assay Kit comes in a convenient 96-well format, with enough purified recombinant TrkA enzyme, TrkA substrate, ATP and kinase assay buffer for 100 enzyme reactions. The method was discussed in details in the ESI.
as §2, with “reactions.” for “reactions. The method was discussed in details in the ESI.”
The assay protocol: all samples and controls should be tested in duplicate. Dissolve 5x Kinase Assay Buffer 1, ATP, and PTK Substrate Poly (Glu:Tyr 4:1) (10 mg/ml). 2). The master mixture (25 μl per well) was prepared by N wells x (6 μl 5x Kinase Assay Buffer 1 + 1 μl ATP (500 μM) + 1 μl PTK Substrate Poly (Glu:Tyr 4:1) (10mg/ml) + 17 μl water). Add 5 μl of Inhibitor solution of each well labeled as “Test Inhibitor”. For the “Positive Control" and “Blank”, add 5 μl of the same solution without inhibitor (Inhibitor buffer). Prepare 3 ml of 1x Kinase assay buffer 1 by mixing 600 μl of 5x Kinase assay buffer 1 with 2400 μl water 3 ml of 1x Kinase assay buffer is sufficient for 100 reactions. To the wells designated as "Blank", add 20 μl of 1x Kinase assay buffer 1and thaw TrkA enzyme on ice. Upon first thaw, briefly spin tube containing enzyme to recover full content of the tube. Calculate the amount of TrkA required for the assay and dilute enzyme to 5 ng/μl with 1x Kinase assay buffer. Store remaining undiluted enzyme in aliquots at -80°C. Then initiate reaction by adding 20 μl of diluted TrkA enzyme to the wells designated “Positive Control” and "Test Inhibitor Control". Incubate at 30°C for 45minutes and thaw Kinase-Glo Max reagent. After the 45 minute reaction, add 50 μl of Kinase-Glo Max reagent to each well. Cover plate with aluminum foil and incubate the plate at room temperature for 15 minutes. Immediately read sample in a luminometer or microtiter-plate capable of reading chemiluminescence. “Blank” value is subtracted from all readings.

HepG2 cell line = experiment: MTT assay, HepG2 cell line; assay type: cell-based, human; conditions: for Cytotoxicity at 5 µg/l: HepG2, 5 µg/l; for Cytotoxicity at 5 µg/l / Cytotoxicity at 10 µg/l / Cytotoxicity at 20 µg/l: MTT, 24 hr treatment, in % (unit assumed); for Cytotoxicity at 10 µg/l: HepG2, 10 µg/l; for Cytotoxicity at 20 µg/l: HepG2, 20 µg/l; for IC50: Homo sapiens, HepG2, MTT, read-out: IC50 (drug concentration that inhibited 50% of cell proliferation)
Outline: as §1

HCT-116 cell line = experiment: MTT assay, HCT-116 cell line; assay type: cell-based, human; conditions: for Cytotoxicity at 5 µg/l: HCT116, 5 µg/l; for Cytotoxicity at 5 µg/l / Cytotoxicity at 10 µg/l / Cytotoxicity at 20 µg/l: MTT, 24 hr treatment, in % (unit assumed); for Cytotoxicity at 10 µg/l: HCT116, 10 µg/l; for Cytotoxicity at 20 µg/l: HCT116, 20 µg/l; for IC50: Homo sapiens, HCT-116, HCT116, MTT, read-out: IC50 (drug concentration that inhibited 50% of cell proliferation)
Outline: as §1

Compound	Cell cycle comment (phase of arrest) (HepG2 cells)	DNA content %G0-G1 (HepG2 cells)	DNA content %G2/M (HepG2 cells)	DNA content %Pre-G1 (HepG2 cells)	DNA content %S (HepG2 cells)	increase of the proportion of cells in the G2/M phase (HepG2 cells)	Cytotoxicity at 5 µg/l (MCF7 cell line)	Cytotoxicity at 10 µg/l (MCF7 cell line)	Cytotoxicity at 20 µg/l (MCF7 cell line)	IC50 [1]	Cytotoxicity at 5 µg/l (HepG2 cell line)	Cytotoxicity at 10 µg/l (HepG2 cell line)	Cytotoxicity at 20 µg/l (HepG2 cell line)	IC50 (HepG2 cell line)	Cytotoxicity at 5 µg/l (HCT-116 cell line)	Cytotoxicity at 10 µg/l (HCT-116 cell line)	Cytotoxicity at 20 µg/l (HCT-116 cell line)	IC50 (HCT-116 cell line)
COc1ccc(C=C2C(=O)NC(=O)c3c2nn2c(C)cc(C)nc32)cc1 [Compound 7b]	arrested in the cell cycle at G2/M phase; also recorded: arrest in cell cycle at the G2/M phase; also recorded: cell growth arrest@G2/M	38.42%	34.70%	24.89%	26.88%	about 4 folds	60.48	79.12	95.03	0.184 µM	55.11	69.08	85.16	4.25 ng/mL (≈ 0.0122 µM)	67.87	70.12	91.94	2.49 ng/mL (≈ 0.00714 µM)
Cc1cc(O)n2nc3c(c2n1)C(=O)NC(=O)C3=NNc1ccccc1 [Compound 16a, 4-Hydroxy-2-methyl-7-(2-phenylhydrazono)pyrido[4ʹ,3ʹ:3,4]pyrazolo[1,5-a]pyrimid-ine-8,10(7H,9H)-dione]	arrest in cell cycle at the G2/M phase; also recorded: cell growth arrest@G2/M	42.11%	21.74%	15.33%	36.15%	~2.5 folds	55.09	57.34	77.25	0.214 µM	54.39	66.36	72.80	3.56 ng/mL (≈ 0.0106 µM)	54.16	74.90	87.26	4.37 ng/mL (≈ 0.013 µM)
COc1ccc(NN=C2C(=O)NC(=O)c3c2nn2c(O)cc(C)nc32)cc1 [Compound 16c, 4-Hydroxy-7-(2-(4-methoxyphenyl)hydrazono)-2-methylpyrido[4ʹ,3ʹ:3,4]pyrazolo[1,5-a]pyrimidine-8,10(7H,9H)-dione]	arrest in cell cycle at the G2/M phase; also recorded: cell growth arrest@G2/M	41.61%	26.45%	12.07%	31.94%	~3 folds	56.81	62.79	79.61	0.128 µM	59.17	70.57	84.32	3.43 ng/mL (≈ 0.00935 µM)	55.98	78.34	99.23	4.5 ng/mL (≈ 0.0123 µM)
